Measurements from ChEMBL document CHEMBL5543081, “Design, synthesis and evaluation of antioxidant and anti-inflammatory activities of novel resveratrol derivatives as potential multifunctional drugs” (Eur J Med Chem, 2024).
Active and inactive are the calls of the source. No cut-off for these calls is given here.

Legend:
[1] = Antioxidant activity assessed as FRAP radical scavenging activity by measuring reduction of Fe3+ complex to Fe2+ analogue incubated for 30 mins by FRAP assay; assay type: functional
RAW264.7 [2] = assay: Cytotoxicity against mouse RAW264.7 cells at 10 uM measured after 24 hrs by MTT assay relative to control; assay type: functional
[3] = Antioxidant activity assessed as ABTS radical scavenging activity after 20 mins; assay type: functional
[4] = Antioxidant activity assessed as DPPH radical scavenging activity measured for 30 mins by spectrophotometric analysis; assay type: functional
RAW264.7 [5] = assay: Antiinflammatory activity in LPS-stimulated mouse RAW264.7 cells assessed as effect on ERK phosphorylation level preincubated for 4 hrs followed by LPS stimulation for 12 hrs by Western blot analysis; assay type: functional, cell-based; settings: time 16.0 hrs
RAW264.7 [6] = assay: Upregulation of Nrf2 expression in H2O2 induced mouse RAW264.7 cells at 10 uM by Western blot analysis; assay type: functional, cell-based
RAW264.7 [7] = assay: Protection against H2O2 induced apoptosis in mouse RAW264.7 cells assessed as decrease in cleaved caspase-3 expression at 10 uM by Western blot analysis; assay type: functional, cell-based
RAW264.7 [8] = assay: Protection against H2O2 induced apoptosis in mouse RAW264.7 cells assessed as decrease in cleaved PARP expression at 10 uM by Western blot analysis; assay type: functional, cell-based
RAW264.7 [9] = assay: Effect on KEAP1 level in H2O2 induced mouse RAW264.7 cells at 2.5 to 10 uM by Western blot analysis; assay type: functional, cell-based; settings: dose 2.5-10 µM
RAW264.7 [10] = assay: Protection against H2O2 induced apoptosis in mouse RAW264.7 cells assessed as cell apoptosis rate at 10 uM preincubated for 3 hrs with compound followed by H2O2 stimulation and measured after 3 hrs by annexin V-FITC and PI staining based flow cytometry analysis; assay type: functional; settings: time 6.0 hrs
RAW264.7 [11] = assay: Antiinflammatory activity in LPS-stimulated mouse RAW264.7 cells assessed as reduction in iNOS mRNA expression preincubated for 4 hrs followed by LPS stimulation for 12 hrs by RT-qPCR analysis; assay type: functional, cell-based; settings: dose 2.5-10 µM, time 16.0 hrs
RAW264.7 [12] = assay: Antiinflammatory activity in LPS-stimulated mouse RAW264.7 cells assessed as inhibition of JNK phosphorylation level preincubated for 4 hrs followed by LPS stimulation for 12 hrs by Western blot analysis; assay type: functional, cell-based; settings: dose 2.5-10 µM, time 16.0 hrs
RAW264.7 [13] = assay: Antiinflammatory activity in LPS-stimulated mouse RAW264.7 cells assessed as reduction in NF-kappaB p65 phosphorylation level at 10 uM preincubated for 4 hrs followed by LPS stimulation for 12 hrs by Western blot analysis; assay type: functional, cell-based; settings: time 16.0 hrs
RAW264.7 [14] = assay: Inhibition of H2O2 induced ROS production in mouse RAW264.7 cells assessed as decrease in ROS level at 10 uM preincubated for 3 hrs followed by H2O2 addition and measured after 3 hrs DCFH-DA staining based flow cytometry analysis; assay type: functional, cell-based; settings: time 6.0 hrs
RAW264.7 [15] = assay: Antiinflammatory activity in LPS-stimulated mouse RAW264.7 cells assessed as inhibition of p38 phosphorylation level preincubated for 4 hrs followed by LPS stimulation for 12 hrs by Western blot analysis; assay type: functional, cell-based; settings: dose 2.5-10 µM, time 16.0 hrs
RAW264.7 [16] = assay: Upregulation of HO-1 protein level in H2O2 induced mouse RAW264.7 cells at 2.5 to 10 uM by Western blot analysis; assay type: functional, cell-based; settings: dose 2.5-10 µM
RAW264.7 [17] = assay: Antiinflammatory activity in LPS-stimulated mouse RAW264.7 cells assessed as reduction in iNOS level preincubated for 4 hrs followed by LPS stimulation for 12 hrs by Western blot analysis; assay type: functional, cell-based; settings: dose 2.5-10 µM, time 16.0 hrs
RAW264.7 [18] = assay: Protection against H2O2 induced apoptosis in mouse RAW264.7 cells assessed as cell apoptosis rate at 10 uM preincubated for 3 hrs with compound followed by H2O2 stimulation and measured after 3 hrs by annexin V-FITC and PI staining based flow cytometry analysis (reference value: 15.63%); assay type: functional; settings: time 6 hrs
RAW264.7 [19] = assay: Antiinflammatory activity against mouse RAW264.7 cells assessed as inhibition of LPS-induced NO production at 10 uM preincubated for 4 hrs with compound followed by LPS stimulation and measured after 12 hrs; assay type: functional, cell-based; settings: time 16.0 hrs
RAW264.7 [20] = assay: Upregulation of GPx mRNA expression in H2O2 induced mouse RAW264.7 cells at 2.5 to 10 uM by RT-qPCR analysis; assay type: functional, cell-based; settings: dose 2.5-10 µM
RAW264.7 [21] = assay: Upregulation of Nrf2 expression in H2O2 induced mouse RAW264.7 cells by Western blot analysis; assay type: functional, cell-based; settings: dose 2.5-10 µM
RAW264.7 [22] = assay: Upregulation of SOD mRNA expression in H2O2 induced mouse RAW264.7 cells at 2.5 to 10 uM by RT-qPCR analysis; assay type: functional, cell-based; settings: dose 2.5-10 µM
RAW264.7 [23] = assay: Inhibition of H2O2 induced ROS production in mouse RAW264.7 cells assessed as decrease in ROS level preincubated for 3 hrs followed by H2O2 addition and measured after 3 hrs DCFH-DA staining based flow cytometry analysis; assay type: functional, cell-based; settings: dose 2.5-10 µM, time 6.0 hrs
RAW264.7 [24] = assay: Upregulation of HO-1 mRNA expression in H2O2 induced mouse RAW264.7 cells at 2.5 to 10 uM by RT-qPCR analysis; assay type: functional, cell-based; settings: dose 2.5-10 µM
RAW264.7 [25] = assay: Upregulation of CAT mRNA expression in H2O2 induced mouse RAW264.7 cells at 2.5 to 10 uM by RT-qPCR analysis; assay type: functional, cell-based; settings: dose 2.5-10 µM

| SMILES | IC50 [3] | IC50 [4] | Activity [1] | further results |
| --- | --- | --- | --- | --- |
| Cc1cccc(C(=O)N/N=C\c2c(O)cc(O)cc2/C=C/c2ccc(O)cc2)c1 | 18 µM | 80.8 µM | 0.9 µM | – |
| O=C(N/N=C\c1c(O)cc(O)cc1/C=C/c1ccc(O)cc1)c1cccc(Cl)c1 | 15.2 µM | 81.9 µM | 0.9 µM | – |
| Cc1ccccc1C(=O)N/N=C\c1c(O)cc(O)cc1/C=C/c1ccc(O)cc1 | 17.2 µM | 97.3 µM | 0.4 µM | – |
| Oc1ccc(/C=C/c2cc(O)cc(O)c2)cc1 [RESVERATROL] | 18.4 µM | 86.6 µM | 0.9 µM | Activity (RAW264.7 [5]): inactive; Activity (RAW264.7 [6]): inactive; Activity (RAW264.7 [7]): inactive; Activity (RAW264.7 [8]): inactive; Activity (RAW264.7 [9]): inactive; Activity (RAW264.7 [10]): inactive |
| O=C(N/N=C\c1c(O)cc(O)cc1/C=C/c1ccc(O)cc1)c1ccc(Cl)cc1 | 17.9 µM | 89.5 µM | 0.7 µM | – |
| O=C(N/N=C\c1c(O)cc(O)cc1/C=C/c1ccc(O)cc1)c1ccccc1 | 13.4 µM | 84.4 µM | 0.7 µM | – |
| O=C(N/N=C\c1c(O)cc(O)cc1/C=C/c1ccc(O)cc1)c1ccc(Br)cc1 | 13 µM | 84 µM | 0.5 µM | – |
| O=C(N/N=C\c1c(O)cc(O)cc1/C=C/c1ccc(O)cc1)c1ccc(O)cc1 | 13 µM | 69.9 µM | 1.1 µM | Activity (RAW264.7 [11]): Dose-Dependent Effect; Activity (RAW264.7 [12]): Dose-Dependent Effect; Activity (RAW264.7 [13]): Active; Activity (RAW264.7 [5]): inactive; Activity (RAW264.7 [2]): >80%; inhibition (RAW264.7 [14]): Active; Activity (RAW264.7 [15]): Dose-Dependent Effect; Activity (RAW264.7 [16]): Active; Activity (RAW264.7 [17]): Dose-Dependent Effect; Activity (RAW264.7 [7]): Active; Activity (RAW264.7 [18]): 26.58%; Activity (RAW264.7 [8]): Active; Activity (RAW264.7 [19]): Active; Activity (RAW264.7 [20]): inactive; Activity (RAW264.7 [9]): inactive; Activity (RAW264.7 [21]): Dose-Dependent Effect; Activity (RAW264.7 [22]): inactive; inhibition (RAW264.7 [23]): Dose-Dependent Effect; Activity (RAW264.7 [24]): Active; Activity (RAW264.7 [25]): inactive |
| O=C(N/N=C\c1c(O)cc(O)cc1/C=C/c1ccc(O)cc1)c1ccc(F)cc1 | 15.7 µM | 86.3 µM | 0.8 µM | – |
| O=C(N/N=C\c1c(O)cc(O)cc1/C=C/c1ccc(O)cc1)c1ccccn1 | 17.1 µM | 98.3 µM | 0.9 µM | Activity (RAW264.7 [2]): >80%; inhibition (RAW264.7 [14]): Active; Activity (RAW264.7 [19]): Active |
| Cc1ccc(C(=O)N/N=C\c2c(O)cc(O)cc2/C=C/c2ccc(O)cc2)cc1 | 15.7 µM | 87 µM | 0.5 µM | – |
| Cc1c(C)c2c(c(C)c1O)CCC(C)(C(=O)O)O2 (stereo not given) [TROLOX] | 14.7 µM | 32.7 µM | 2.5 µM | – |
| N#Cc1ccc(C(=O)N/N=C\c2c(O)cc(O)cc2/C=C/c2ccc(O)cc2)cc1 | 18.2 µM | 84 µM | 0.6 µM | – |
| O=C(N/N=C\c1c(O)cc(O)cc1/C=C/c1ccc(O)cc1)c1ccccc1F | 17.3 µM | 97.8 µM | 1 µM | – |
| O=C(N/N=C\c1c(O)cc(O)cc1/C=C/c1ccc(O)cc1)c1ccncc1 | 13.5 µM | 104 µM | 1.1 µM | Activity (RAW264.7 [2]): >80% |

Further lines, with some results ahead:

| IC50 [3] | IC50 [4] | SMILES | Activity [1] | further results |
| --- | --- | --- | --- | --- |
| 9.7 µM | 46.2 µM | Nc1ccc(C(=O)N/N=C\c2c(O)cc(O)cc2/C=C/c2ccc(O)cc2)cc1 | 2.2 µM | Activity (RAW264.7 [2]): >80% |
| 11.6 µM | 79.9 µM | O=C(N/N=C\c1c(O)cc(O)cc1/C=C/c1ccc(O)cc1)c1cccc([N+](=O)[O-])c1 | 0.4 µM | – |
| 12.5 µM | 82.6 µM | O=C(N/N=C\c1c(O)cc(O)cc1/C=C/c1ccc(O)cc1)c1cccc(F)c1 | 0.8 µM | – |
| 8.5 µM | 39.8 µM | Nc1ccccc1C(=O)N/N=C\c1c(O)cc(O)cc1/C=C/c1ccc(O)cc1 | 1.5 µM | – |
| 12.8 µM | 37.8 µM | O=C(N/N=C\c1c(O)cc(O)cc1/C=C/c1ccc(O)cc1)c1ccccc1O | 0.9 µM | – |
| 11.7 µM | 76.6 µM | O=C(N/N=C\c1c(O)cc(O)cc1/C=C/c1ccc(O)cc1)c1cccc(O)c1 | 1.3 µM | Activity (RAW264.7 [2]): >80%; Activity (RAW264.7 [19]): Active |
| 12.7 µM | 89.5 µM | O=C(N/N=C\c1c(O)cc(O)cc1/C=C/c1ccc(O)cc1)c1cccnc1 | 1.2 µM | Activity (RAW264.7 [2]): >80% |
